# Legend:
# Mus musculus [1] = test: Antagonism of delta1 opioid agonist (DPDPE)-induced antinociception upon intrathecal administration in mice at a dose of 2.5 pmol; type: functional
# Mus musculus [2] = test: Antagonism of delta2 opioid agonist (deltorphin II)-induced antinociception upon intrathecal administration in mice at a dose of 2.5 pmol; type: functional
# Mus musculus [3] = test: Antagonism of kappa2 opioid agonist (bremazocine)-induced antinociception upon intrathecal administration in mice at a dose of 2.5 pmol; type: functional
# Opioid receptor [4] = biological target: T1, Opioid receptor (Mus musculus, UniProt P42866+P32300+P33534); test: Compound was tested for binding affinity on intact HEK cells using [3H]diprenorphine as radioligand co-expressed with delta and kappa opioid receptors; type: cell-based; settings: hek293
# Opioid receptor [5] = biological target: T1, Opioid receptor; test: Compound was tested for binding affinity on intact HEK cells using [3H]diprenorphine as radioligand singly expressed with delta or kappa receptors.; type: cell-based; settings: hek293
# Mus musculus [6] = test: Antagonism of kappa1 opioid agonist (U-50,488)-induced antinociception upon intrathecal administration in mice at a dose of 2.5 pmol; type: functional
# Opioid receptor [7] = biological target: T1, Opioid receptor; test: Compound was tested for binding affinity on intact HEK cells using [3H]diprenorphine as radioligand singly expressed with delta or kappa receptor; type: cell-based, Homo sapiens; settings: hek293
# Mus musculus [8] = test: Antagonism of delta1 opioid agonist (DPDPE)-induced antinociception upon intrathecal administration in mice at a dose of 25 pmol; type: functional
# Mus musculus [9] = test: Antagonism of delta2 opioid agonist (deltorphin II)-induced antinociception upon intrathecal administration in mice at a dose of 25 pmol; type: functional
# Mus musculus [10] = test: Antagonism of kappa2 opioid agonist (bremazocine)-induced antinociception upon intrathecal administration in mice at a dose of 25 pmol; type: functional
# Opioid receptor [11] = biological target: T1, Opioid receptor; test: Compound was tested for binding affinity on intact HEK cells using [3H]diprenorphine as radioligand co-expressed with delta and kappa opioid receptor; type: cell-based; settings: hek293
# Mus musculus [12] = test: Antagonism of delta1 opioid agonist (DPDPE)-induced antinociception upon intrathecal administration in mice at a dose of 30 pmol; type: functional
# Mus musculus [13] = test: Antagonism of delta2 opioid agonist (deltorphin II)-induced antinociception upon intrathecal administration in mice at a dose of 30 pmol; type: functional
# Mus musculus [14] = test: Antagonism of kappa1 opioid agonist (U-50,488)-induced antinociception upon intrathecal administration in mice at a dose of 30 pmol; type: functional
# Mus musculus [15] = test: Antagonism of kappa2 opioid agonist (bremazocine)-induced antinociception upon intrathecal administration in mice at a dose of 30 pmol; type: functional
# Mus musculus [16] = test: Antagonism of delta1 opioid agonist (DPDPE)-induced antinociception upon intrathecal administration in mice at a dose of 1.0 pmol; type: functional
# Mus musculus [17] = test: Antagonism of delta2 opioid agonist (deltorphin II)-induced antinociception upon intrathecal administration in mice at a dose of 1.0 pmol; type: functional
# Mus musculus [18] = test: Antagonism of kappa2 opioid agonist (bremazocine)-induced antinociception upon intrathecal administration in mice at a dose of 1.0 pmol; type: functional
# Mus musculus [19] = test: Antagonism of kappa1 opioid agonist (U-50,488)-induced antinociception upon intrathecal administration in mice at a dose of 25 pmol; type: functional
# Mus musculus [20] = test: Antagonism of delta1 opioid agonist (DPDPE)-induced antinociception upon intrathecal administration in mice at a dose of 50 pmol; type: functional
# Mus musculus [21] = test: Antagonism of kappa2 opioid agonist (bremazocine)-induced antinociception upon intrathecal administration in mice at a dose of 50 pmol; type: functional
# Mus musculus [22] = test: Antagonism of delta2 opioid agonist (deltorphin II)-induced antinociception upon intrathecal administration in mice at a dose of 50 pmol; type: functional
# Mus musculus [23] = test: Antagonism of kappa1 opioid agonist (U-50,488)-induced antinociception upon intrathecal administration in mice at a dose of 50 pmol; type: functional
# Mus musculus [24] = test: Antagonism of delta1 opioid agonist (DPDPE)-induced antinociception upon intrathecal administration in mice at a dose of 250 pmol; type: functional
# Mus musculus [25] = test: Antagonism of delta2 opioid agonist (deltorphin II)-induced antinociception upon intrathecal administration in mice at a dose of 250 pmol; type: functional
# Mus musculus [26] = test: Antagonism of kappa1 opioid agonist (U-50,488)-induced antinociception upon intrathecal administration in mice at a dose of 250 pmol; type: functional
# Mus musculus [27] = test: Antagonism of kappa2 opioid agonist (bremazocine)-induced antinociception upon intrathecal administration in mice at a dose of 250 pmol; type: functional
compound,measurement,setting,value
NC(=NCCNC(=O)CNC(=O)CNC(=O)CCC(=O)NCC(=O)NCC(=O)Nc1cccc2c3c([nH]c12)[C@@H]1Oc2c(O)ccc4c2C12CCN(CC1CC1)C(C4)[C@]2(O)C3)Nc1ccc2[nH]c3c(c2c1)C[C@@]1(O)C2Cc4ccc(O)c5c4C1(CCN2CC1CC1)[C@H]3O5 (some centres undefined),ED50,Mus musculus [1],3.4 nM mouse-1
same,ED50,Mus musculus [2],1.1 nM mouse-1
same,ED50,Mus musculus [3],1.7 nM mouse-1
same,Ki,Opioid receptor [4],0.5 nM
same,Ki,Opioid receptor [5],58.8 nM
NC(=NCCCCNC(=O)CNC(=O)CNC(=O)CCC(=O)NCC(=O)NCC(=O)Nc1cccc2c3c([nH]c12)[C@@H]1Oc2c(O)ccc4c2C12CCN(CC1CC1)C(C4)[C@]2(O)C3)Nc1ccc2[nH]c3c(c2c1)C[C@@]1(O)C2Cc4ccc(O)c5c4C1(CCN2CC1CC1)[C@H]3O5 (some centres undefined),ED50,Mus musculus [1],6.3 nM mouse-1
same,ED50,Mus musculus [2],2.2 nM mouse-1
same,ED50,Mus musculus [6],0.6 nM mouse-1
same,ED50,Mus musculus [3],1.7 nM mouse-1
same,Ki,Opioid receptor [4],1.4 nM
same,Ki,Opioid receptor [7],1.1 nM
O=C(CCC(=O)NCC(=O)NCC(=O)Nc1cccc2c3c([nH]c12)[C@@H]1Oc2c(O)ccc4c2C12CCN(CC1CC1)C(C4)[C@]2(O)C3)NCC(=O)NCC(=O)NCCCNC(=O)c1cccc2c3c([nH]c12)[C@@H]1Oc2c(O)ccc4c2C12CCN(CC1CC1)C(C4)[C@]2(O)C3 (some centres undefined),ED50,Mus musculus [8],1.1 nM mouse-1
same,ED50,Mus musculus [9],2.4 nM mouse-1
same,ED50,Mus musculus [10],2.4 nM mouse-1
same,Ki,Opioid receptor [11],> 1000 nM
same,Ki,Opioid receptor [7],199 nM
N/C(=N\CCCCCNC(=O)CNC(=O)CNC(=O)CCC(=O)NCC(=O)NCC(=O)Nc1cccc2c3c([nH]c12)[C@@H]1Oc2c(O)ccc4c2C12CCN(CC1CC1)C(C4)[C@]2(O)C3)Nc1ccc2[nH]c3c(c2c1)C[C@@]1(O)C2Cc4ccc(O)c5c4C1(CCN2CC1CC1)[C@H]3O5 (some centres undefined),ED50,Mus musculus [1],2.2 nM mouse-1
same,ED50,Mus musculus [2],2.1 nM mouse-1
same,ED50,Mus musculus [3],4.1 nM mouse-1
same,Ki,Opioid receptor [11],4.8 nM
same,Ki,Opioid receptor [7],3.3 nM
N/C(=N\CCCNC(=O)CNC(=O)CNC(=O)CCC(=O)NCC(=O)NCC(=O)Nc1cccc2c3c([nH]c12)[C@@H]1Oc2c(O)ccc4c2C12CCN(CC1CC1)C(C4)[C@]2(O)C3)Nc1ccc2[nH]c3c(c2c1)C[C@@]1(O)C2Cc4ccc(O)c5c4C1(CCN2CC1CC1)[C@H]3O5 (some centres undefined),ED50,Mus musculus [12],8 nM mouse-1
same,ED50,Mus musculus [13],1.2 nM mouse-1
same,ED50,Mus musculus [14],1.9 nM mouse-1
same,ED50,Mus musculus [15],50.4 nM mouse-1
same,Ki,Opioid receptor [4],0.3 nM
same,Ki,Opioid receptor [5],63 nM
N/C(=N\CCCNC(=O)CNC(=O)CNC(=O)CCC(=O)NCC(=O)NCC(=O)Nc1ccc2[nH]c3c(c2c1)C[C@]1(O)C2Cc4ccc(O)c5c4C1(CCN2CC1CC1)[C@@H]3O5)Nc1ccc2[nH]c3c(c2c1)C[C@]1(O)C2Cc4ccc(O)c5c4C1(CCN2CC1CC1)[C@@H]3O5 (some centres undefined),ED50,Mus musculus [12],1.1 nM mouse-1
same,ED50,Mus musculus [13],1 nM mouse-1
same,ED50,Mus musculus [15],14.5 nM mouse-1
same,Ki,Opioid receptor [4],> 1000 nM
same,Ki,Opioid receptor [7],54.8 nM
N/C(=N\CCCNC(=O)CNC(=O)CCC(=O)NCC(=O)Nc1cccc2c3c([nH]c12)[C@@H]1Oc2c(O)ccc4c2[C@@]12CCN(CC1CC1)[C@H](C4)[C@]2(O)C3)Nc1ccc2[nH]c3c(c2c1)C[C@@]1(O)[C@H]2Cc4ccc(O)c5c4[C@@]1(CCN2CC1CC1)[C@H]3O5,ED50,Mus musculus [16],2 nM mouse-1
same,ED50,Mus musculus [17],1.9 nM mouse-1
same,ED50,Mus musculus [18],2.5 nM mouse-1
same,Ki,Opioid receptor [4],315 nM
same,Ki,Opioid receptor [5],6.3 nM
O=C1/C(=C/c2ccccc2)C[C@@]2(O)[C@H]3Cc4ccc(O)c5c4[C@@]2(CCN3CC2CC2)[C@H]1O5 [BNTX],ED50,Mus musculus [8],10.6 nM mouse-1
same,ED50,Mus musculus [9],1 nM mouse-1
same,ED50,Mus musculus [19],0.9 nM mouse-1
same,ED50,Mus musculus [10],49.8 nM mouse-1
Oc1ccc2c3c1O[C@H]1c4oc5ccccc5c4C[C@@]4(O)[C@@H](C2)N(CC2CC2)CC[C@]314 [NALTRIBEN],ED50,Mus musculus [20],1 nM mouse-1
same,ED50,Mus musculus [21],5.8 nM mouse-1
same,ED50,Mus musculus [22],9.1 nM mouse-1
same,ED50,Mus musculus [23],0.8 nM mouse-1
Oc1ccc2c3c1O[C@H]1c4[nH]c5c(c4C[C@@]4(O)[C@@H](C2)N(CC2CC2)CC[C@]314)C[C@@]1(O)[C@H]2Cc3ccc(O)c4c3[C@@]1(CCN2CC1CC1)[C@H]5O4 [NORBINALTORPHIMINE],ED50,Mus musculus [24],12.4 nM mouse-1
same,ED50,Mus musculus [25],1 nM mouse-1
same,ED50,Mus musculus [26],5.3 nM mouse-1
same,ED50,Mus musculus [27],129.5 nM mouse-1

# — ChEMBL document CHEMBL1138828, “A bivalent ligand (KDN-21) reveals spinal delta and kappa opioid receptors are organized as heterodimers that give rise to delta(1) and kappa(2) phenotypes. Selective targeting of delta-kappa heterodimers” (J Med Chem, 2004)
